Measured values as given in patent US9440957B2, “Compounds and compositions for modulating EGFR Activity” (Novartis AG, priority 2012, dated 2016).
pIC50: −log10 of the molar value. Like-named read-outs stand apart in the source and are kept apart here.

Key:
[1] = molecular target: H3255 (EGFR L858R) (Homo sapiens, UniProt P00533, L858R); test: EGFR target modulation in H3255 cell line (phospho-EGFR Y1173 ELISA); type: cell-based
How it was run: (§1)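 pY1173 was measured by sandwich ELISA with anti-EGFR capture and chemiluminescent read-out. Before lysis, each cell line (HCC827, H1975, H3255) was treated with compound for 3 hours. IC50 derived by non-linear fit, normalised to EGF-stimulated controls as maximum.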

[2] = molecular target: T1, EGFR(L858R/T790M) (Homo sapiens, UniProt P00533, L858R/T790M); test: EGFR biochemical assay (HTRF), IC50 determinations
T1 construct: purchased from Carna (GST-a.a. 669-1210)
How it was run: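 HTRF kinase reaction with biotin-TK peptide at room temperature, quenched with EDTA at 60 min and detected with PT66K/SAXL after 1 h. Without preincubation, enzyme starts the reaction with compound, ATP and peptide present. With preincubation, compound, enzyme and peptide sit at room temperature for a set time before ATP is added.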

[3] = molecular target: HEKn (EGFR WT) (Homo sapiens, UniProt P00533); test: EGFR target modulation in HEKn (EGFR-WT) cell line (phospho-EGFR Y1173 ELISA); type: cell-based; conditions: value outside parentheses
How it was run: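 Primary neonatal human keratinocytes (EGFR WT) were exposed to serially diluted compounds for 3 h, then lysed on ice. Phospho-EGFR Y1173 was measured by chemiluminescent sandwich ELISA using anti-EGFR capture.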

[4] = molecular target: H1975 (EGFR L858/T790M) (Homo sapiens, UniProt P00533, L858R/T790M); test: EGFR target modulation in H1975 cell line (phospho-EGFR Y1173 ELISA); type: cell-based
How it was run: as §1

[5] = molecular target: HCC827 (Del E746-A750) (Homo sapiens, UniProt P00533, DEL746-750); test: EGFR target modulation in HCC827 cell line (phospho-EGFR Y1173 ELISA); type: cell-based
Protocol: EGFR Target Modulation in H1975, H3255 and HCC827 Cell Lines Tissue Culture. Cells were maintained in 10% FBS/RPMI supplemented with 100 μg/ml Penicillin/Streptomycin (Hyclone #SH30236.01). […] The cells were allowed to incubate overnight in a 37° C., 5% CO2 humidified tissue culture incubator. […] The serial diluted compounds were transferred to the plate containing cells by using a 50 nl Pin Head device (Perkin Elmer) and the cells were placed back in the incubator for 3 hours. Phospho-EGFR ([…]) Target Modulation Assay. The media was reduced to 20 ul using a Bio-Tek ELx 405 SelectTM plate washer. […] The plates were shaken at 4° C. for 20 minutes. An aliquot of 25 ul from each well was transferred to pEGFR(Y1173) ELISA plates for analysis. Phospho-EGFR ([…]) ELISA. Solid white high-binding ELISA plates (Greiner #781074) were coated with 5 ug/ml anti-EGFR capture antibody (R&D Systems #AF231) overnight in 50 mM carbonate/bicarbonate pH 9.5 buffer. Plates were blocked with 1% BSA (Sigma #A7030) in PBS for 1 hour at room temperature. Wash steps were carried out with a Bio-Tek ELx405 SelectTM using 4 cycles of 100 ul TBS-T (20 mM Tris, 137 mM NaCl, 0.05% Tween-20) per well. […] Lysis was allowed to occur for 20 minutes on ice. A 25 ul aliquot was added to each well of the blocked ELISA plate and incubated overnight at 4° C. with gentle shaking. […] After washing, 1:2,000 anti-rabbit-HRP (Cell Signaling #7074) in 0.2% BSA/TBS-T was added and incubated for 1 hour at room temperature. Chemiluminescent detection was carried out with SuperSignal ELISA Pico substrate (ThermoScientific #37069). Signal was read on EnVision plate reader using built-in UltraLUM setting. Data Analysis. Control cells treated with EGF were set to 100% maximum response. […] With these parameters, the IC50's for each compound in each cell line was calculated using non-linear curve fitting analysis.

[6] = molecular target: human EGFR L858R/T790M (NIH/3T3 cells) (Homo sapiens, UniProt P00533, L858R/T790M); test: EGFR target modulation in engineered NIH/3T3 cell lines (phospho-EGFR Y1068 AlphaLISA), EGFR L858R/T790M; type: cell-based; conditions: engineered NIH/3T3 cells, read-out: NIH3T3 IC50 (μM) EGFR (L858R/T790M)
How it was run: (§2)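 Engineered NIH/3T3 cells expressing EGFR variants treated 3 h at 37 °C with 12-point 1:3 compound series (top stock 10 μM); only WT cells stimulated with 50 ng/ml EGF for 5 min before lysis. Phospho-Y1068 measured by AlphaLISA with total-EGFR antibody; IC50 from non-linear fitting.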

[7] = molecular target: human EGFR WT (NIH/3T3 cells, EGF-induced) (Homo sapiens, UniProt P00533); test: EGFR target modulation in engineered NIH/3T3 cell lines (phospho-EGFR Y1068 AlphaLISA), EGFR WT; type: cell-based; conditions: engineered NIH/3T3 cells, read-out: NIH3T3 IC50 (μM) EGFR (WT)
How it was run: as §2

[8] = molecular target: human EGFR L858R (NIH/3T3 cells) (Homo sapiens, UniProt P00533, L858R); test: EGFR target modulation in engineered NIH/3T3 cell lines (phospho-EGFR Y1068 AlphaLISA), EGFR L858R; type: cell-based; conditions: engineered NIH/3T3 cells, read-out: NIH3T3 IC50 (μM) EGFR (L858R)
How it was run: as §2

[9] = EGFR (L858R/T790M) with 90 min pre-incubation, read-out: IC50 (μM) Column B
[10] = EGFR (L858R/T790M) with no pre-incubation, read-out: IC50 (μM) Column A

human EGFR L858R (NIH/3T3 cells), sequence (P00533 25-1210 L858R): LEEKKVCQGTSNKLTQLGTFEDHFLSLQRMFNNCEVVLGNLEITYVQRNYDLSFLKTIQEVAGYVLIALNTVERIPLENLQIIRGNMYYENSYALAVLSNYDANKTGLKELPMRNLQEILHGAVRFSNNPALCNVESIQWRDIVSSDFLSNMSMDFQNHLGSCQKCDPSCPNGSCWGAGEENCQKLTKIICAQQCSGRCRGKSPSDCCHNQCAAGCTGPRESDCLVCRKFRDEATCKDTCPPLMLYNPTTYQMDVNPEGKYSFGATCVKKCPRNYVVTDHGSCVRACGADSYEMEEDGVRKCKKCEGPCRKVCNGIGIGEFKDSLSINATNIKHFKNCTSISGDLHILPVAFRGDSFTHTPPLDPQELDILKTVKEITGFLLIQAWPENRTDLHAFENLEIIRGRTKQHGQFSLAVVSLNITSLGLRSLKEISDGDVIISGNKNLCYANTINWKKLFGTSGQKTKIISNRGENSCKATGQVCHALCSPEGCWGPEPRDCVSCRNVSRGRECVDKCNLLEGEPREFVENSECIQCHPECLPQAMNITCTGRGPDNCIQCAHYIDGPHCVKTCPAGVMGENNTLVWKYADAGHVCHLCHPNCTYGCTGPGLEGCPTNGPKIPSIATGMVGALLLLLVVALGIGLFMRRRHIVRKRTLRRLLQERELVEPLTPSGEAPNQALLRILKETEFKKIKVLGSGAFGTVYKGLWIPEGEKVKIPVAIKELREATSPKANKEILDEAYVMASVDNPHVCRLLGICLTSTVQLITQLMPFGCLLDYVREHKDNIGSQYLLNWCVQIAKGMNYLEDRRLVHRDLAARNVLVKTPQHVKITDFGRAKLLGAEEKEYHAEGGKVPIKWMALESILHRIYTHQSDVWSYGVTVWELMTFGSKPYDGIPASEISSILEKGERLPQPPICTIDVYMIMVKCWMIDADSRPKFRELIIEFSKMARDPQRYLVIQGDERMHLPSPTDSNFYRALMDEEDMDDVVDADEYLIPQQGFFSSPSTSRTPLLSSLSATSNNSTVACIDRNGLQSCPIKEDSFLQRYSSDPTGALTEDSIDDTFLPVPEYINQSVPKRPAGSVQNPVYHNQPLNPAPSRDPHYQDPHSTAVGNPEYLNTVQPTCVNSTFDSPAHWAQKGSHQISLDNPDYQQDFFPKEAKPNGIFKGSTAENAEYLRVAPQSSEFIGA
H3255 (EGFR L858R), sequence (P00533 25-1210 L858R): as above
human EGFR WT (NIH/3T3 cells, EGF-induced), sequence (P00533 25-1210): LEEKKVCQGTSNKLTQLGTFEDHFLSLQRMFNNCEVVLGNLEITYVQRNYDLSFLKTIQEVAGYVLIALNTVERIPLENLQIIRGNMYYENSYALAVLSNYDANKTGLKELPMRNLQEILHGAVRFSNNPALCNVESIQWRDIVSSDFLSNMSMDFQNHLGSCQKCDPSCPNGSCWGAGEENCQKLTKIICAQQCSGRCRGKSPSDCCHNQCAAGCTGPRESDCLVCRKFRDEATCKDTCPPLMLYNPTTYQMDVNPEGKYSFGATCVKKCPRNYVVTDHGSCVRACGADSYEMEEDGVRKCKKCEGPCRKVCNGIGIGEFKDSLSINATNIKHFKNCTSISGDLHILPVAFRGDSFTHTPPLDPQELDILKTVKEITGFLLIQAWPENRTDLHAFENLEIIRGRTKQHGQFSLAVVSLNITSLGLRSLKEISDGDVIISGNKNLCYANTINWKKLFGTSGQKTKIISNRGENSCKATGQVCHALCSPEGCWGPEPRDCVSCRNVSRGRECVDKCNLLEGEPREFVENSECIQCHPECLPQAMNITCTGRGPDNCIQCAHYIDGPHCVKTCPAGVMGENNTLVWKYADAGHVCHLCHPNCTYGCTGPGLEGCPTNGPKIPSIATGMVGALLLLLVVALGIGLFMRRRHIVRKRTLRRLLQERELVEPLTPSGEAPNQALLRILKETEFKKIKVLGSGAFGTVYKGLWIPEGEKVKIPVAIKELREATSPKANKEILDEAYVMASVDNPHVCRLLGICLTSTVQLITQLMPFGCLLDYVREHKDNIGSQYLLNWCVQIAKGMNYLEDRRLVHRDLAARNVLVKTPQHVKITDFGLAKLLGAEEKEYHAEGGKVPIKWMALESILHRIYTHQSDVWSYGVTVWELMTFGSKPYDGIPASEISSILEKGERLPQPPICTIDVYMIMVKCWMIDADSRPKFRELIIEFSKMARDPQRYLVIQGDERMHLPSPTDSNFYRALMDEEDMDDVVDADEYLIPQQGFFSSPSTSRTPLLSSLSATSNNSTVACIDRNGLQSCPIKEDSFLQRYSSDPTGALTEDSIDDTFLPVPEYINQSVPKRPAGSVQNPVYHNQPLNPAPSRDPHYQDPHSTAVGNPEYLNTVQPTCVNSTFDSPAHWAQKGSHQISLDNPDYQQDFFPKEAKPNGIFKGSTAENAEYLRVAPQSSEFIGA
HEKn (EGFR WT), sequence (P00533 25-1210): as above

| SMILES | pIC50 [1] | IC50 [2, 9] [µM] | IC50 [2, 10] [µM] | pIC50 [3] | pIC50 [4] | pIC50 [5] | IC50 [6] [µM] | IC50 [7] [µM] | IC50 [8] [µM] |
| --- | --- | --- | --- | --- | --- | --- | --- | --- | --- |
| C=CC(=O)N1CCCC[C@@H](n2c(NC(=O)c3cc(C)nc(C)c3)nc3cc(CN4CC[C@H](OC)C4)cc(C)c32)C1 [Example 17-156] | 8.70 | < 0.001 | 0.001 | 6.89 | > 9.00 | > 9.00 |  |  |  |
| C/C=C/C(=O)N1CCCC[C@@H](n2c(NC(=O)c3ccnc(C)c3)nc3cc(CN4CCCC4)cc(C)c32)C1 [Example 17-164] | 7.14 | 0.005 | 0.055 | 5.64 | 7.24 | 8.05 |  |  |  |
| Cc1cc(C(=O)Nc2nc3cccc(C)c3n2[C@@H]2CCCCN(C(=O)/C=C/CN(C)C)C2)cc(Cl)n1 [Example 17-74] | 7.96 | < 0.001 | 0.003 | 6.58 | 8.70 |  | 0.002 | 0.076 | 0.004 |
| C=CC(=O)N1CCCC[C@@H](n2c(NC(=O)c3ccnnc3)nc3ccc(OC)c(Cl)c32)C1 [Example 9, (R)—N-(1-(1-acryloylazepan-3-yl)-7-chloro-6-methoxy-1H-benzo[d]imidazol-2-yl)pyridazine-4-carboxamide] | 8.10 | < 0.001 | 0.006 | 6.82 | 8.52 |  | 0.002 | 0.101 | 0.008 |
| C=CC(=O)N1CCCC[C@@H](n2c(NC(=O)c3ccnnc3)nc3cccc(OC(C)C)c32)C1 [Example 17-86] | 7.24 | 0.004 | 0.04 | 6.15 | 7.92 |  | 0.008 | 0.45 | 0.03 |
| Cc1cccc2nc(NC(=O)c3ccc(F)c(F)c3)n(C3CCCCN(C(=O)/C=C/CN(C)C)C3)c12 (centres unmarked) [Example 17-30] | 7.43 | < 0.001 | 0.005 | 6.50 | 8.00 |  | 0.004 | 0.167 | 0.003 |
| Cc1cncc(C(=O)Nc2nc3cccc(C)c3n2[C@@H]2CCCCN(C(=O)/C=C/CN(C)C)C2)c1 [Example 17-68] | 8.10 | < 0.001 | 0.003 | 6.69 | 8.70 |  | 0.001 | 0.023 | 0.002 |
| C=CC(=O)N1CCCC[C@@H](n2c(NC(=O)c3ccccc3)nc3cc(CN4CCCC4)cc(C)c32)C1 [Example 17-111] | 8.10 | < 0.001 | 0.004 | 6.69 | > 9.00 |  | 0.001 | 0.047 | 0.003 |
| Cc1cc(C(=O)Nc2nc3cccc(C)c3n2[C@@H]2CCCCN(C(=O)/C=C/CN(C)C)C2)ccn1 [Example 7, (R,E)-N-(1-(1-(4-(dimethylamino)but-2-enoyl)azepan-3-yl)-7-methyl-1H-benzo[d]imidazol-2-yl)-2-methylisonicotinamide] | 8.70 | < 0.001 | 0.002 | 7.13 | 9.00 |  | 0.001 | 0.019 | 0.001 |
| Cc1cccc2nc(NC(=O)c3cncc(-n4cccc4)c3)n([C@@H]3CCCCN(C(=O)/C=C/CN(C)C)C3)c12 [Example 17-70] | 8.15 | < 0.001 | < 0.001 | 6.73 | > 9.00 |  | < 0.001 | 0.035 | 0.001 |
| Cc1cccc2nc(NC(=O)c3cccc(F)c3F)n(C3CCCCN(C(=O)/C=C/CN(C)C)C3)c12 (centres unmarked) [Example 17-27] | 7.06 | 0.002 | 0.021 | 6.00 | 7.92 |  | 0.005 | 0.67 | 0.012 |
| Cc1cccc2nc(NC(=O)c3cnc(Cl)c(Cl)c3)n([C@@H]3CCCCN(C(=O)/C=C/CN(C)C)C3)c12 [Example 17-78] | 7.43 | < 0.001 | 0.006 | 5.77 | 6.87 |  | 0.006 | 0.152 | 0.005 |
| C=CC(=O)N1CCCC[C@@H](n2c(NC(=O)c3cnnc(C)c3)nc3cccc(C)c32)C1 [Example 17-81] | 8.40 | < 0.001 | 0.002 | 6.79 | 8.70 |  | 0.002 | 0.067 | 0.003 |
| C=CC(=O)N1CCCC[C@@H](n2c(NC(=O)c3ccnnc3)nc3cccc(Cl)c32)C1 [Example 17-15] | 7.66 | < 0.001 | 0.012 | 6.59 | 8.22 |  | 0.006 | 0.204 | 0.017 |
| C=CC(=O)N1CCC[C@@H](n2c(NC(=O)c3ccnc(C)c3)nc3cccc(C)c32)C1 [Example 17-109] | 7.37 | < 0.001 | 0.025 | 5.77 | 7.85 |  | 0.028 | 0.88 | 0.032 |
